According to ChEMBL document CHEMBL1833934, “Discovery and optimization of 1-(4-(pyridin-2-yl)benzyl)imidazolidine-2,4-dione derivatives as a novel class of selective cannabinoid CB2 receptor agonists” (J Med Chem, 2011):

Columns and labels:
[1] = Lipophilicity, log D of the compound; assay type: physicochemical; settings: octanol/water
[2] = Dissociation constant, pKa of the compound; assay type: physicochemical
[3] = Oral bioavailability in Wistar BRL rat at 5 mg/kg; assay type: ADME, organism-based; settings: in vivo
Rattus norvegicus = assay: Unbound Cmax in Wistar BRL rat plasma at 5 mg/kg, po; assay type: ADME, organism-based; set-up: dose 5 mg/kg, route oral; settings: in vivo
in vivo [4] = settings: Wistar BRL, rat, brain, po, 20 mg/kg
[5] = Apparent permeability across human Caco2 cell membrane at 20 uM after 1 hr by LC-MS/MS analysis; settings: Caco-2
[6] = Volume of distribution at steady state in Wistar BRL rat plasma at 1 mg/kg, iv and 5 mg/kg, po; assay type: ADME, organism-based; settings: read-out: Vdss
in vivo [7] = settings: Wistar BRL, rat, cerebrospinal fluid, po, 20 mg/kg
[8] = Cmax in Wistar BRL rat plasma at 5 mg/kg, po; assay type: ADME, organism-based; set-up: dose 5 mg/kg, route oral

Row | Structure (SMILES) | logD [1] | pKa [2] | further results
1 | O=C1CN(Cc2ccc(-c3ccc(F)c(CN4CCCCC4)n3)cc2)C(=O)N1CC(F)F | 1.9 | 9 | –
2 | CC(C)CN1C(=O)CN(Cc2ccc(-c3cccc(CN4CCCC(F)(F)C4)n3)cc2)C1=O | 4.5 | 5.3 | –
3 | O=C1CN(Cc2ccc(-c3ccc(F)c(CN4CCS(=O)(=O)CC4)n3)cc2)C(=O)N1C1CC1 | 1 | 2.8 | bioavailability [3]: 100%; fCmax (Rattus norvegicus): 1.7 µM; Kp at 4 h (in vivo [4]): 0.05; Papp at 1 h, 20 µM [5]: 17.3 ×10⁻⁶ cm/s; Vd [6]: 0.94 L/kg; Kp at 4 h (in vivo [7]): 0.14; Cmax [8]: 3800 nM
4 | CC(C)CN1C(=O)CN(Cc2ccc(-c3cccc(CN4CCCCC4)n3)cc2)C1=O | 2.8 | 8.9 | bioavailability [3]: 4%; fCmax (Rattus norvegicus): 0.006 µM; Papp at 1 h, 20 µM [5]: 21 ×10⁻⁶ cm/s; Vd [6]: 5.4 L/kg; Cmax [8]: 20 nM
5 | CC(C)CN1C(=O)CN(Cc2ccc(-c3cccc(CN4CCCC(F)C4)n3)cc2)C1=O (centres undefined) | 3.7 | 7.4 | –
6 | CC(C)CN1C(=O)CN(Cc2ccc(-c3ccc(F)c(CN4CCCC(F)C4)n3)cc2)C1=O (centres undefined) | 4.1 | 7.2 | –
7 | CCCN1C(=O)CN(Cc2ccc(-c3cccc(CN4CCCCC4)n3)cc2)C1=O | 2.2 | 8.8 | –
8 | CC(C)N1C(=O)CN(Cc2ccc(-c3cccc(CN4CCCCC4)n3)cc2)C1=O | 2.2 | – | –
9 | CCCN1C(=O)CN(Cc2ccc(-c3ccc(F)c(CN4CCCCC4)n3)cc2)C1=O | 2.5 | 8.5 | –
10 | CCN1C(=O)CN(Cc2ccc(-c3cccc(CC4CCCCC4)n3)cc2)C1=O | 5.6 | – | –
11 | O=C1CN(Cc2ccc(-c3cccc(CN4CCCCC4)n3)cc2)C(=O)N1C1CC1 | 1.6 | 9 | –
12 | CC(C)CN1C(=O)CN(Cc2ccc(-c3ccc(F)c(CN4CCCCC4)n3)cc2)C1=O | 3.4 | 8.6 | –
13 | CN1C(=O)CN(Cc2ccc(-c3cccc(CN4CCCCC4)n3)cc2)C1=O | 1.3 | 8.7 | –
14 | O=C1CN(Cc2ccc(-c3cccc(CN4CCCCC4)n3)cc2)C(=O)N1CC(F)F | 1.6 | 8.9 | –
15 | CCN1C(=O)CN(Cc2ccc(-c3cccc(CN4CCCCC4)n3)cc2)C1=O | 1.7 | 8.8 | –
16 | CC(C)CN1C(=O)CN(Cc2ccc(-c3ccc(F)c(CN4CCCC(C)C4)n3)cc2)C1=O (centres undefined) | 3.9 | 8.4 | –
17 | O=C1CN(Cc2ccc(-c3cccc(CN4CCCCC4)n3)cc2)C(=O)N1CC(F)(F)F | 1.9 | – | –
18 | O=C1CN(Cc2ccc(-c3cccc(CN4CCCCC4)n3)cc2)C(=O)N1CC1CC1 | 2.5 | 8.9 | –
19 | CC(C)CN1C(=O)CN(Cc2ccc(-c3ccc(F)c(CN4CCS(=O)(=O)CC4)n3)cc2)C1=O | 3 | 3 | –
20 | O=C1CN(Cc2ccc(-c3ccc(F)c(CN4CCCCC4)n3)cc2)C(=O)N1C1CC1 | 2 | 8.6 | –
21 | O=C1CN(Cc2ccc(-c3ccc(F)c(CN4CCCCC4)n3)cc2)C(=O)N1CC1CC1 | 2.8 | 8.5 | –
22 | CCN1C(=O)CN(Cc2ccc(-c3ccc(F)c(CN4CCCCC4)n3)cc2)C1=O | 2.1 | 8.5 | –
23 | O=C1CN(Cc2ccc(-c3cccc(CN4CCCCC4)n3)cc2)C(=O)N1C1CCC1 | 2.7 | – | –
24 | CC(C)CN1C(=O)CN(Cc2ccc(-c3cccc(CN4CCCC(C)C4)n3)cc2)C1=O (centres undefined) | 3.4 | 8.7 | –
25 | O=C1CN(Cc2ccc(-c3ccc(F)c(CN4CCCCC4)n3)cc2)C(=O)N1CC1CCC1 | 3.5 | 8.6 | –
26 | CC(C)CN1C(=O)CN(Cc2ccc(-c3ccc(F)c(CN4CCCC(F)(F)C4)n3)cc2)C1=O | 4.7 | 5 | –
27 | CC(C)CN1C(=O)CN(Cc2ccc(-c3cccc(CN4CCS(=O)(=O)CC4)n3)cc2)C1=O | 3 | 3.7 | –
28 | CC(C)CN1C(=O)CN(Cc2ccc(-c3ccc(F)c(CN4CCOCC4)n3)cc2)C1=O | 3.4 | 6 | –
